Measurements reported in US20240254118A1, “PRMT5 INHIBITORS AND USES THEREOF” (Gilead Sciences, Inc., priority 2022, published 2024).
pEC50: −log10 of the molar value.

Tests used:
[1] = system: HCT116 MTAP-deleted cells; assay: Cell viability assay (CellTiter-Glo, 7 days), HCT116 MTAP-deleted; settings: Homo sapiens, HCT-116, 168 h
[2] = system: SDMA signal (PRMT5 inhibition) in HCT116 MTAP-deleted cells; assay: Symmetric di-methyl arginine image-based high content screen assay (SDMA assay), HCT116 MTAP-deleted; assay type: cell-based; settings: SDMA assay; for pEC50: Homo sapiens, HCT-116, 72 h, 3 days of treatment, cell line not given, taken as HCT116 MTAP-deleted, read-out: EC50 (SDMA assay)
Method in brief: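 Read-out: per-cell mean SDMA immunofluorescence (Alexa Fluor 488 secondary), cells segmented by DAPI on a high-content imager. Compound exposure in HCT116 MTAP-deleted cells lasted until fixation on Day 3; overnight 4° C primary anti-SDMA antibody staining.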

[3] = taken as HCT116 WT versus MTAP-deleted
[4] = taken as HCT116 WT vs MTAP-deleted

Structure (SMILES) | CC50 [1] | pEC50 [2] | EC50 selectivity (SDMA assay) [2, 3] | EC50 selectivity (SDMA assay) [2, 4]
CN(C(=O)c1nccn1C)N(Cc1ccc(C(F)(F)F)cn1)C(=O)c1ccc2nc(N)c3cnn(C)c3c2c1 [Example 158, 4-amino-N′,1-dimethyl-N′-(1-methyl-1H-imidazole-2-carbonyl)-N-((5-(trifluoromethyl)pyridin-2-yl)methyl)-1H-pyrazolo[4,3-c]quinoline-8-carbohydrazide] | < 100 nM | > 9.00 | 4 | 
CCC(=O)N(CC)N(Cc1ccc(C(F)(F)F)cn1)C(=O)c1cc2c(cc1F)nc(N)c1cnn(C)c12 [Example 280, 4-amino-N′-ethyl-7-fluoro-1-methyl-N′-propionyl-N-((5-(trifluoromethyl)pyridin-2-yl)methyl)-1H-pyrazolo[4,3-c]quinoline-8-carbohydrazide] | < 100 nM | 8.30 to 9.00 | 31 | 
CC(=O)N(N(Cc1ccc(C(F)(F)F)cn1)C(=O)c1ccc2nc(N)c3cnn(C)c3c2c1)C12CC(C1)C2 [Example 107, N′-acetyl-4-amino-N′-(1-bicyclo[1.1.1]pentanyl)-1-methyl-N-[[5-(trifluoromethyl)-2-pyridyl]methyl]pyrazolo[4,3-c]quinoline-8-carbohydrazide] | < 100 nM | > 9.00 | 163 | 
Cn1ncc2c(N)nc3ccc(C(=O)N(Cc4c(F)cc(C(F)(F)F)cc4F)N4CCCCC4=O)cc3c21 [Example 64, 4-amino-N-[[2,6-difluoro-4-(trifluoromethyl)phenyl]methyl]-1-methyl-N-(2-oxo-1-piperidyl)pyrazolo[4,3-c]quinoline-8-carboxamide] | < 100 nM | > 9.00 | 15 | 
CN(C(=O)C12CC(C1)C2)N(Cc1ccc(C(F)(F)F)cn1)C(=O)c1ccc2nc(N)c3cnn(C)c3c2c1 [Example 101, 4-amino-N′-(bicyclo[1.1.1]pentane-1-carbonyl)-N′,1-dimethyl-N-[[5-(trifluoromethyl)-2-pyridyl]methyl]pyrazolo[4,3-c]quinoline-8-carbohydrazide] | < 100 nM | 8.30 to 9.00 | 108 | 
COCC(=O)N(C)N(Cc1ccc(C(F)(F)F)cn1)C(=O)c1cc2c(cc1F)nc(N)c1cnn(C)c12 [Example 386, 4-amino-7-fluoro-N′-(2-methoxyacetyl)-N′,1-dimethyl-N-[[5-(trifluoromethyl)-2-pyridyl]methyl]pyrazolo[4,3-c]quinoline-8-carbohydrazide] | < 100 nM | 8.30 to 9.00 | 20 | 
Cn1ncc2c(N)nc3cc(F)c(C(=O)N(Cc4ccc(C(F)(F)F)cc4F)n4ccnc4)cc3c21 [Example 200, 4-amino-7-fluoro-N-[[2-fluoro-4-(trifluoromethyl)phenyl]methyl]-N-imidazol-1-yl-1-methyl-pyrazolo[4,3-c]quinoline-8-carboxamide] | < 100 nM | > 9.00 | 6 | 
CN(C(=O)C1CC1)N(Cc1ncc(Cl)cc1F)C(=O)c1ccc2nc(N)c3cnn(C)c3c2c1 [Example 360, 4-amino-N-((5-chloro-3-fluoropyridin-2-yl)methyl)-N′-(cyclopropanecarbonyl)-N′,1-dimethyl-1H-pyrazolo[4,3-c]quinoline-8-carbohydrazide] | < 100 nM | 8.30 to 9.00 | 446 | 
Cn1ncc2c(N)nc3ccc(C(=O)N(Cc4ccc(C(F)(F)F)cn4)N4CC(F)(F)CCC4=O)cc3c21 [Example 13, 4-amino-N-(5,5-difluoro-2-oxo-1-piperidyl)-1-methyl-N-[[5-(trifluoromethyl)-2-pyridyl]methyl]pyrazolo[4,3-c]quinoline-8-carboxamide] | < 100 nM | > 9.00 | 128 | 
CN(c1ccsn1)N(Cc1ccc(C(F)(F)F)cn1)C(=O)c1ccc2nc(N)c3cnn(C)c3c2c1 [Example 361] | < 100 nM | > 9.00 | 34 | 
CCn1c(CN(C(=O)c2ccc3nc(N)c4cnn(C)c4c3c2)N2CCCC2=O)nc2ccccc21 [Example 83, 4-Amino-N-[(1-ethylbenzimidazol-2-yl)methyl]-1-methyl-N-(2-oxopyrrolidin-1-yl)pyrazolo[4,3-c]quinoline-8-carboxamide] | 100 to 1000 nM | 8.30 to 9.00 | 242 | 
CC(=O)N(C)N(Cc1ccn(-c2ccc(F)cc2)n1)C(=O)c1ccc2nc(N)c3cnn(C)c3c2c1 [Example 432, N′-acetyl-4-amino-N-((1-(4-fluorophenyl)-1H-pyrazol-3-yl)methyl)-N′,1-dimethyl-1H-pyrazolo[4,3-c]quinoline-8-carbohydrazide] | < 100 nM | 8.30 to 9.00 |  | 297
CCOC(=O)NN(C(=O)c1ccc2nc(N)c3cnn(C)c3c2c1)C1COc2cc(C(F)(F)F)ccc21 (stereo not drawn) [Example 350, ethyl 2-(4-amino-1-methyl-1H-pyrazolo[4,3-c]quinoline-8-carbonyl)-2-(6-(trifluoromethyl)-2,3-dihydrobenzofuran-3-yl)hydrazine-1-carboxylate] | < 100 nM | > 9.00 | 42 | 
CC(=O)N(C)N(Cc1ccc(OC(F)F)cc1F)C(=O)c1ccc2nc(N)c3cnn(C)c3c2c1 [Example 77, N′-acetyl-4-amino-N-(4-(difluoromethoxy)-2-fluorobenzyl)-N′,1-dimethyl-1H-pyrazolo[4,3-c]quinoline-8-carbohydrazide] | < 100 nM | > 9.00 | 69 | 
CC(=O)N(C)N(Cc1ccc(F)cc1Cl)C(=O)c1ccc2nc(N)c3cnn(C)c3c2c1 [Example 451, N′-acetyl-4-amino-N-(2-chloro-4-fluorobenzyl)-N′,1-dimethyl-1H-pyrazolo[4,3-c]quinoline-8-carbohydrazide] | < 100 nM | > 9.00 |  | 111
CN(C(=O)[C@H]1C[C@H]1F)N(Cc1ccc(C(F)(F)F)cn1)C(=O)c1ccc2nc(N)c3cnn(C)c3c2c1 [Example 258, 4-amino-N′-((1R,2R)-2-fluorocyclopropane-1-carbonyl)-N′,1-dimethyl-N-((5-(trifluoromethyl)pyridin-2-yl)methyl)-1H-pyrazolo[4,3-c]quinoline-8-carbohydrazide] | < 100 nM | 8.30 to 9.00 | 221 | 
Cn1ncc2c(N)nc3ccc(C(=O)N(Cc4ccc(C(F)(F)F)cn4)N4CCN(CC(F)(F)F)C4=O)cc3c21 [Example 4, 4-amino-1-methyl-N-(2-oxo-3-(2,2,2-trifluoroethyl)imidazolidin-1-yl)-N-((5-(trifluoromethyl)pyridin-2-yl)methyl)-1H-pyrazolo [4,3-c]quinoline-8-carboxamide] | < 100 nM | 8.30 to 9.00 | 327 | 
CC(=O)N(C)N(Cc1ccc(-c2cn(C(F)(F)F)cn2)cc1F)C(=O)c1ccc2nc(N)c3cnn(C)c3c2c1 [Example 223, N′-acetyl-4-amino-N-(2-fluoro-4-(1-(trifluoromethyl)-1H-imidazol-4-yl)benzyl)-N′,1-dimethyl-1H-pyrazolo[4,3-c]quinoline-8-carbohydrazide] | < 100 nM | 8.30 to 9.00 | 139 | 
CC(=O)N(C)N(Cc1nc2cc(Cl)ccc2n1C)C(=O)c1cc2c(cc1F)nc(N)c1cnn(C)c12 [Example 210, N′-acetyl-4-amino-N-[(5-chloro-1-methyl-benzimidazol-2-yl)methyl]-7-fluoro-N′,1-dimethyl-pyrazolo[4,3-c]quinoline-8-carbohydrazide] | < 100 nM | 8.30 to 9.00 | 59 | 
CN(C(=O)C1CCC1)N(Cc1ccc(C(F)(F)F)nn1)C(=O)c1cc2c(cc1F)nc(N)c1cnn(C)c12 [Example 162, 4-amino-N′-(cyclobutanecarbonyl)-7-fluoro-N′,1-dimethyl-N-((6-(trifluoromethyl)pyridazin-3-yl)methyl)-1H-pyrazolo[4,3-c]quinoline-8-carbohydrazide] | < 100 nM | > 9.00 | 127 | 
Cn1ncc2c(N)nc3ccc(C(=O)N(Cc4ccc(C(F)(F)F)cn4)N4CCC5(CC5)OC4=O)cc3c21 [Example 336, 4-amino-1-methyl-N-(5-oxo-4-oxa-6-azaspiro[2.5]octan-6-yl)-N-((5-(trifluoromethyl)pyridin-2-yl)methyl)-1H-pyrazolo[4,3-c]quinoline-8-carboxamide] | < 100 nM | 8.30 to 9.00 | 94 | 
CC(=O)N(C)N(Cc1ccc(-c2ccc(C(F)(F)F)cc2)cc1F)C(=O)c1ccc2nc(N)c3cnn(C)c3c2c1 [Example 231, N′-acetyl-4-amino-N-((3-fluoro-4′-(trifluoromethyl)-[1,1′-biphenyl]-4-yl)methyl)-N′,1-dimethyl-1H-pyrazolo[4,3-c]quinoline-8-carbohydrazide] | < 100 nM | 8.30 to 9.00 | 18 | 
Cn1ncc2c(N)nc3ccc(C(=O)N(Cc4ccc(C(F)(F)F)cn4)N4CCC(F)(F)CC4)cc3c21 [Example 22, 4-amino-N-(4,4-difluoro-1-piperidyl)-1-methyl-N-[[5-(trifluoromethyl)-2-pyridyl]methyl]pyrazolo[4,3-c]quinoline-8-carboxamide] | < 100 nM | 8.30 to 9.00 | 260 | 
CC(=O)N(C)N(Cc1ccc(C(F)(F)F)cn1)C(=O)c1ccc2nc(N)c3c(c2c1)COC3 [Example 168, N′-acetyl-4-amino-N′-methyl-N-[[5-(trifluoromethyl)-2-pyridyl]methyl]-1,3-dihydrofuro[3,4-c]quinoline-8-carbohydrazide] | < 100 nM | > 9.00 | 97 | 
